We go through one substance from patent publication US20200378993A1, “MEDICAL USES OF APOLIPOPROTEIN A AND ACTIVATORS THEREOF” (FUNDACIÓN IMDEA ALIMENTACIÓN, priority 2017, published 2020).

Format in all cases: cell-based, human
Test [1] concerns DLD1 cells. Description: Migration assay (Corning BioCoat Control plates). The note with it: ApoA1 40 μg/ml 72 hours before, 20 μg/ml during assay. The procedure: (§1) Cell viability and proliferation assays were carried out by means of XCELLigence technology (ACEA Biosciences, Inc.) following the manufacturer's indications. Migration and invasion assays were carried out in Corning® BioCoat™ Control plates (#354578) and Corning® BioCoat™ Matrigel plates (#354480), respectively, following the manufacturer's indications. For the rescue assays, the cells were treated for 72 hours with 30 μM apabetalone (RVX-208; Biovision). Antibodies: ABCA1 (Ab18180, Abcam. 1:500); caveolin-1 (Ab2910, Abcam. 1:1000); α-tubulin (T9026, Sigma 1:1000). The DLD1 cells correspond to a human colorectal cancer-derived adherent epithelial cell line (ATCC® CCL-221™). The stable cell lines capable of overexpressing ABCA1 were obtained by means of transduction with genetically modified lentivirus.
(§2) Following the same treatment regimen, the inventors carried out migration and invasion assays.
(§3) The same assays were repeated by replacing ApoA1 with a treatment with RVX-208. In this case, DLD1 cells were pre-treated for 72 hours before the start of the experiment with RVX-208 at a concentration of 30 μm and were subjected to a treatment with 15 μM of RVX-208 during the development of the experiments.

The test system of test [2] is DLD1 cells. Description: Cell viability and proliferation assay (XCELLigence). Conditions: ApoA1 40 μg/ml first dose of 72 hours, 20 μg/ml during result acquisition; DLD1 cells. On the procedure:
as §1, §2, §3
(§4) For the purpose of confirming that the effects of RVX-208 in cell phenotype recovery were due to the increase in ApoA-1 expression, the inventors inhibited the expression of said protein by means of transfection of a complementary small RNA, ShApoA1 (FIG. 9). Twenty-four hours after transfection with ShApoA1 expression vector, the inventors started treatment with 30 μM of RVX-208. Cell viability and proliferation in DLD1 cells (D_NoORF) and D1D1 cell lines expressing increased ApoA1 levels (D_ApoA1 ) were analyzed with the xCELLigence system.

Test [3] relates to DLD1 cells. Briefly: Invasion assay (Corning BioCoat Matrigel plates). Conditions: ApoA1 40 μg/ml 72 hours before, 20 μg/ml during assay; DLD1 cells. On the procedure: as §1, §2, §3, §4
Test [4] concerns ABCA1 cholesterol transporter. Description: ABCA1 messenger RNA and protein level after treatment. The procedure:
(§5) FIG. 6. A) Proliferation curve in a viability assay carried out by means of XCELLigence technology. The results for the stable cell line overexpressing ABCA1 in the absence and presence of ApoA1 are shown. The cells were treated for 72 hours before the experiment with 40 μg/ml of ApoA1 and with a concentration of 20 μg/ml during acquisition. B) Migration and invasion assays. The method followed was the same as the one described in FIG. 1. (**p-value=0.003; ****p-value<0.0001). C) ABCA1 messenger RNA level (left panel) and ABCA1 protein level (right panel) in the presence and absence of treatment with ApoA1. Results are shown both for the control cells and for those cells overexpressing the transporter.
FIG. 7. A) Proliferation curve in a viability assay carried out by means of XCELLigence technology. Growth of DLD1 cells treated with DMSO as the drug carrier and with Rvx-208 (30 μM). The significant differences existing in the slope of the graph, and therefore in the growth dynamics of the treated cells are shown in the right panel (****p-value<0.0001). B) Migration and invasion assays. The method followed was the same as the one described in FIG. 2 (*p-value=0.0407; ****p-value<0.0001). C) Expression levels of proteins E-cadherin and Vimentin in the presence and absence of Rvx-208. Analysis performed by means of quantitative PCR. The relative expression levels normalized with respect to the untreated control are shown. D) ABCA1, ApoA1, caveolin-1, and α-tubulin immunodetection by means of Western blot. α-tubulin acts as load control. The results of the cells treated with Rvx-208 (30 μM) or with the DMSO carrier are shown. E) Cholesterol flux in cells treated with Rvx-208.
as §1, with “The stable cell lines capable of overexpressing ABCA1 were obtained by means of transduction with genetically modified lentivirus.” left out
(§6) The inventors were able to confirm said results based on the treatment of DLD1 cells expressing ABCA1 with RVX-208 under the conditions already described in detail in Example 3. […] The levels of caveolin-1, a protein whose increased levels have been associated with increases in cell migration and invasion, were also analyzed in this experiment.

Another test concerns DLD1_ABCA1 cells. Briefly: Cell viability and proliferation assay (XCELLigence). Conditions: 40 μg/ml apolipoprotein A1 (72 hours before, 20 μg/ml during acquisition); DLD1_ABCA1 cells. The procedure: as §5
Cell viability and proliferation assays were carried out by means of XCELLigence technology (ACEA Biosciences, Inc.) following the manufacturer's indications. Migration and invasion assays were carried out in Corning® BioCoat™ Control plates (#354578) and Corning® BioCoat™ Matrigel plates (#354480), respectively, following the manufacturer's indications. […]
as §6

[5] abbreviates: treatment with ApoA1, control cells and cells overexpressing ABCA1.

With “ApoA1: apolipoprotein A1 protein administered to the cells”, in the test with DLD1 cells [1], the “capacity to migrate to the serum-rich region” value is reported as “reduced capacities to migrate to the serum-rich region”. The cell proliferation result with DLD1 cells [2] was “significant decrease in cell proliferation”. For the same substance, the “capacity to invade the extracellular matrix” value with DLD1 cells [3] is listed as “reduced capacities”. Also, the ABCA1 levels result in test [4] (direct treatment with ApoA1, as restated in Example 5 (FIG. 6C)) is recorded as “induces an increase in ABCA1 levels”. Also, in test [4] (setting [5]), the “ABCA1 expression level, messenger RNA level” value was “significantly decreases the expression levels” and the “ABCA1 expression level, protein level” value is “significantly decreases the expression levels”. For the same substance, in the test on DLD1_ABCA1 cells, the proliferative capacity result is “dropped to levels that are comparable to the control situation”.
